Experimental data: patent publication US20190388437A1, “COMPOSITIONS AND METHODS FOR TREATING BONE AND JOINT INFECTIONS” (priority 2014, published 2019)
Values after ≈ are worked out from the molar mass of the structure shown. Values joined by “and” are separate entries in the source; they are usually repeats but may differ in a detail not shown here. Equal entries are not always repeated. Where two headings read alike, the source gives them in different places.

Assays:
[1] = system: methicillin-resistant S. aureus (MRSA) strain USA 300; assay: CLSI MIC against MRSA strain USA 300; format: cell-based; settings: Staphylococcus aureus
Experimental: Pharmacodynamics of CEM-102 against Methicillin-Resistant Staphylococcus aureus Using In vitro Models. A hollow fiber model was used to evaluate CEM-102 resistance potential in methicillin-resistant S. aureus (MRSA) strain USA 300 (Network of Antimicrobial Resistance in Staphylococcus aureus (MRSA), Chantilly, Va.). USA 300 is a highly virulent strain of MRSA and is the most common community-associated MRSA isolate in the USA. MIC values were determined in accordance with Clinical and Laboratory Standards Institute (CLSI).

[2] = cited from earlier work
S. aureus [3] = assay: Reference broth microdilution susceptibility testing, Canadian isolates; format: cell-based
Source text: (§1) To determine a contemporary susceptibility (S) spectrum pattern. 153 GP isolates (123 S. aureus, 15 coagulase-negative staphylococci [CoNS] and 15 S. pyogenes [SPYO]) were collected from 5 Canadian medical centers between 2001 and 2006.

[4] = system: coagulase-negative staphylococci [CoNS]; assay: as above; format: cell-based; settings: 15 isolates
Source text: as §1

S. pyogenes [SPYO] = assay: as above; format: cell-based; settings: Streptococcus pyogenes; all 15 isolates
Source text: as §1

[5] = system: S. aureus MRSA (Mec A genotype); assay: Agar dilution MIC against resistant S. aureus; format: cell-based; settings: Staphylococcus aureus
Source text: The in vitro activity of CEM-102 was compared with that of telithromycin, azithromycin, erythromycin, levofloxacin, linezolid, and doxycycline against a total of 145 resistant S. aureus by agar dilution procedures (CLSI, M7-A7, M100-S18). The tested strains included S. aureus MRSA (Mec A genotype; 100 isolates), macrolide-resistant (ermA, B, C genotype or MLSb-resistant; 25), and ciprofloxacin-resistant (gyrA and parC genotype; 20).

M. luteus = assay: CLSI broth microdilution MIC, spectrum study; format: cell-based; settings: Micrococcus luteus
Experimental: (§2) CLSI broth microdilution (BMD) and anaerobic agar dilution (AD) methods were performed. Modifications of standard test methods included adding 10% human serum, adjusting the medium pH to 5, 6, and 8, and synergy was assessed by the checkerboard method. Mutational rates to R were determined at 4×.

S. aureus [6] = assay: CLSI broth microdilution MIC, spectrum study; format: cell-based; settings: Staphylococcus aureus
Experimental: as §2

[7] = system: E. brevis, M. catarrhalis and N. meningitidis; assay: CLSI broth microdilution MIC, spectrum study; format: cell-based
Experimental: as §2

Corynebacterium spp. = assay: CLSI broth microdilution MIC, spectrum study; format: cell-based
Experimental: as §2

streptococci = assay: CLSI broth microdilution MIC, spectrum study; format: cell-based
Experimental: as §2

Enterococci = assay: CLSI broth microdilution MIC, spectrum study; format: cell-based
Experimental: as §2

[8] = system: Gram-positive (GP) species; assay: CLSI broth microdilution / agar dilution MIC, spectrum study; format: cell-based
Experimental: as §2

[9] = system: Gram-negative (GN) species; assay: as above; format: cell-based; settings: all except E. brevis, M. catarrhalis, N. meningitidis
Experimental: as §2

S. aureus [10] = assay: MIC population distribution, 217 S. aureus Canadian isolates; format: cell-based; settings: 217 Canadian isolates
WT isolates = assay: MIC with 10% human serum added; format: cell-based
Experimental: as §2

S. aureus [11] = settings: cited from earlier work
[12] = Multi-dose bioavailability study, 500 mg TID; format: in vivo, healthy subjects (human)
Experimental: Multi-dose bioavailability study using FA at 500 mg TID. The pharmacokinetics of multiple oral doses of CEM-102 (sodium fusidate) 500 mg tablets in healthy subjects was evaluated. […] Blood samples for assay of plasma concentrations of CEM-102 and placebo were collected pre-dose on Day 1 and at 24, 48, 72, and 96 hours. […] Plasma concentrations of CEM-102 were assayed at MicroConstants. Inc. in San Diego, Calif., USA using a validated LC/MS/MS method with a lower limit of quantitation (LLOQ) of 20.0 ng/mL.

[13] = Dose escalation study, single and multiple doses: PK, safety, tolerability; format: in vivo, healthy adult subjects (human)
Experimental: Dose Escalation Study Using Single- and Multi-Dose FA. The pharmacokinetics (PK), safety, and tolerability of single and multiple doses of CEM-102 (sodium fusidate) were evaluated in a single-center, Phase 1, double-blind, randomized, placebo-controlled, dose-escalating study in 32 healthy adult subjects enrolled in 4 dosage groups (550, 1100, 1650, and 2200 mg). In each cohort, six subjects were to receive CEM-102 and two were to receive placebo in a single dose (Period 1) and then multiple doses BID for a total of 11 doses over 5.5 days (Period 2). The two dosing periods were separated by a seven-day washout period between the single dose in Period 1 and the first dose in Period 2.
Dosing proceeded as planned for Cohorts 1 to 3; however, Cohort 4 received only the single dose of 2200 mg (Period 1), because dose-limiting gastrointestinal intolerance was observed after multiple doses of 1650 mg BID in Cohort 3. Period 2 for Cohort 4 evaluated an initial loading dose regimen, and a second loading dose regimen was evaluated in an additional cohort (Cohort 5) per a protocol amendment.

[14] = Period 1 Day 1, single dose 1650 mg

CC(=O)O[C@H]1C[C@@]2(C)[C@@H](C[C@@H](O)[C@H]3[C@@]4(C)CC[C@@H](O)[C@@H](C)[C@@H]4CC[C@@]32C)/C1=C(\CCC=C(C)C)C(=O)O [FA, fusidic acid]
MIC [1]: 0.25 µg/mL (≈ 0.484 µM)
Cmax in plasma at steady state ([2]; 500 mg TID, steady state after the 4th day): 140 µg/mL
Cmax in plasma ([2]; after the first day of treatment, 500 mg TID): around 30 ug/ml
oral bioavailability ([2]; oral): around 98%
% at ≤0.5 (S. aureus [3]; 2001-2002): 95.0%
No. inhibited at MIC 0.06 μg/mL (S. aureus [3]; 2001-2002): 8
No. inhibited at MIC […] (S. aureus [3]; 2001-2002): 29 and 1
No. inhibited at MIC ≥2 μg/mL (S. aureus [3]; 2001-2002): 2
R rate over time (S. aureus [3]; 2001-2006, breakpoint ≤0.5 μg/ml (S) and ≤2 μg/ml (R)): 5.0-12.2%
% at ≤0.5 (S. aureus [3]; 2003-2004): 92.9%
MIC50 (S. aureus [3]; 2003-2004): 0.12 µg/mL (≈ 0.232 µM)
No. inhibited at MIC 0.06 μg/mL (S. aureus [3]; 2003-2004): 6
No. inhibited at MIC […] (S. aureus [3]; 2003-2004): 33
No. inhibited at MIC ≥2 μg/mL (S. aureus [3]; 2003-2004): 3
% at ≤0.5 (S. aureus [3]; 2005-2006): 87.8%
No. inhibited at MIC 0.06 μg/mL (S. aureus [3]; 2005-2006): 2
No. inhibited at MIC […] (S. aureus [3]; 2005-2006): 32 and 2
No. inhibited at MIC ≥2 μg/mL (S. aureus [3]; 2005-2006): 5
MIC90 (S. aureus [3]; Staphylococcus aureus, 2003-2004): 0.12 µg/mL (≈ 0.232 µM)
MIC90 (S. aureus [3]; Staphylococcus aureus, 2005-2006): ≥ 2 µg/mL
MIC90 (S. aureus [3]; Staphylococcus aureus, overall S. aureus population): 0.25 µg/mL (≈ 0.484 µM)
MIC90 (S. aureus [3]; Staphylococcus aureus, 2001-2002): 0.12 µg/mL (≈ 0.232 µM)
MIC50 (S. aureus [3]; Staphylococcus aureus, 2001-2002, read-out: MIC50): 0.12 µg/mL (≈ 0.232 µM)
R rate (S. aureus [3]; overall S. aureus population): 8.1%
MIC50 [4]: 0.12 µg/mL (≈ 0.232 µM)
MIC90 [4]: 16 µg/mL (≈ 31 µM)
MIC (S. pyogenes [SPYO]): 4 to 8 µg/mL (≈ 7.74 to 15.5 µM)
MIC90 [5]: 0.25 µg/mL (≈ 0.484 µM)
MIC (M. luteus): ≤ 0.5 µg/mL
MIC (S. aureus [6]): 0.25 µg/mL
MIC [7]: 0.12 to 0.5 µg/mL
MIC (Corynebacterium spp.): ≤ 0.12 µg/mL
MIC range (streptococci): 16 to 32 µg/mL
MIC range (Enterococci): 2 to 8 µg/mL
MIC values range [8]: 0.06 to 32 µg/mL
MIC [9]: ≥ 2 µg/mL
resistance rate (for CEM-102: isolates with MICs of ≥2.0 μg/mL) (S. aureus [10]): 6.5%
increase in MIC when 10% serum was added (WT isolates): 4 fold
MICs of resistant S. aureus strains (S. aureus [11]; FA-resistant strains): > 256 µg/mL
actual MIC (S. aureus [11]; S. aureus, without protein): < 0.25 µg/mL
MIC90 (S. aureus [11]; S. aureus): 0.12 µg/mL (≈ 0.232 µM)
Cmaxss, geometric mean (CV %) ([12]; human, in vivo, 500 mg): 145680 (25.3) ng/mL
t½ss, arithmetic mean ± SD ([12]; human, in vivo, 500 mg): approximately 19 h
Trough level ([12]; prior to dosing on Day 5, 500 mg TID): 105 µg/mL
tmax, median ([13]; Period 1 Day 1, single dose 1100 mg): 3.50 h
T1/2, harmonic mean [13, 14]: 13.9 h
tmax, median [13, 14]: 3.00 h
tmax, median ([13]; Period 2 Day 6, 1100 mg BID): 4.00 h
CL/F, mean ([13]; human, in vivo, 2200 mg): 0.924 L/h
gastrointestinal AEs after single dose ([13]; in vivo): no gastrointestinal AEs were reported
serious or life-threatening adverse events ([13]; in vivo): No serious or life-threatening adverse events (AEs) occurred
tolerability of single doses ([13]; in vivo): well tolerated
